From patent US20070265278A1, “2-PHENYL-INDOLES AS PROSTAGLANDIN D2 RECEPTOR ANTAGONISTS” (Aventis Pharmaceuticals Inc., priority 2005, published 2007)

Biological target: T1, DP receptor (Homo sapiens, UniProt Q13258)
T1 construct: using the human cell line LS174T, which expresses the endogenous DP receptor; endogenous in cells; host or cells: LS174T human cell line
T1 sequence (Q13258 1-359): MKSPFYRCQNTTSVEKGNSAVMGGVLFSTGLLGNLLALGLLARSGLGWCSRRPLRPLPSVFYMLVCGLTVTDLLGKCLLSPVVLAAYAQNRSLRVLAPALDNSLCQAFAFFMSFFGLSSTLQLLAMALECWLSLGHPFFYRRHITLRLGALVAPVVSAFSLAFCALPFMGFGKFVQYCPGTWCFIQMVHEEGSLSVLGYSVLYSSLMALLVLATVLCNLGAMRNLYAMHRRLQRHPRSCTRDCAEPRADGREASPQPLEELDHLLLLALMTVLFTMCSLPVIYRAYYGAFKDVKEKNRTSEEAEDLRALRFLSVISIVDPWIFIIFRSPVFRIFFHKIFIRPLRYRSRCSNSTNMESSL
Assay: SPA cAMP assay in human LS174 T cells (human DP functional assay)
Type: cell-based
Conditions: inhibition of PGD2 (15 nM)-stimulated cAMP, LS174T cells expressing endogenous DP receptor
Method: The inhibitory effects of the compounds according to the invention are assessed in a human DP functional assay. A cAMP assay is employed using the human cell line LS174T, which expresses the endogenous DP receptor. The protocol is similar to that described previously (Wright D H, Ford-Hutchinson A W, Chadee K, Metters K M, The human prostanoid DP receptor stimulates mucin secretion in LS174T cells, Br J Pharmacol. 131(8):1537-45 (2000)).
Protocol for SPA cAMP Assay in Human LS174 T Cells
• PGD2 (Cayman Chemical Cat#12010) • IBMX (Sigma Cat# 5879) • cAMP SPA direct screening assay system (Amersham code RPA 559) • 96-well cell plates (Wallac Cat# 1450-516) • Wallac 1450 Microplate Trilux scintillation counter (PerkinElmer) • Plate sealers • Eppendorf tubes • Dulbecco's Phosphate-Buffered Saline (PBS) (Invitrogen Cat#14040-133) • Distilled water • Vortex • Magnetic stirrer and stirrer bars Reagent Preparation:
All reagents should be allowed to equilibrate to room temperature before reconstitution.
Transfer the contents of the bottle to a 500 mL graduated cylinder by repeated washing with distilled water. Adjust the final volume to 500 mL with distilled water and mix thoroughly.
Dissolve each of the lysis reagents 1 and 2 in 200 mL assay buffer respectively. Leave at room temperature for 20 minutes to dissolve.
Add 30 mL of lysis buffer 2 to the bottle. Gently shake the bottle for 5 minutes.
Add 15 mL of lysis buffer 2 to each vial, and gently mix until the contents are completely dissolved.
Add 14 mL lysis buffer 2 to each vial and gently mix until the contents are completely dissolved.
Preparation of Immunoreagent
• 1) Add equal volumes of tracer, antiserum and SPA anti-rabbit reagent to a bottle, ensuring that a sufficient volume of this mixture is prepared for the desired number of wells (150 μL/well). • 2) Mix thoroughly. • 3) This immunoreagent solution should be freshly prepared before each assay and not re-used. Standard • 1) Add 1 mL lysis buffer 1 and gently mix until contents are completely dissolved. • 2) The final solution contains cAMP at a concentration of 512 pmol/mL. • 3) Label 7 polypropylene or polystyrene tubes, 0.2 pmol, 0.4 pmol, 0.8 pmol, 1.6 pmol, 3.2 pmol, 6.4 pmol and 12.8 pmol. • 4) Pipette 500 μL of lysis buffer 1 into all the tubes. • 5) Into the 12.8 pmol tube pipette 500 μL of stock standard (512 pmol/mL) and mix thoroughly. Transfer 500 μL from 12.8 pmol tube to the 6.4 pmol tube and mix thoroughly. Repeat this doubling dilution successively with the remaining tubes.
6) 50 μL aliquots in duplicate from each serial dilution and the stock standard will give rise to 8 standard levels of cAMP ranging from 0.2-25.6 pmol standard
Add 50 μL of […] IBMX into 100 mL PBS to make a final concentration of 100 μM and sonicate at 30° C. for 20 minutes.
Dissolve 1 mg PGD2 (FW, 352.5) in 284 μL DMSO to make 10 mM stock solution and store at […]. Before each assay, it is freshly prepared. Add 3 μL of 10 mM stock solution to 20 mL DMSO, mix it thoroughly, and transfer 10 mL to 40 mL PBS.
Compound dilution is carried out in Biomex 2000 (Beckman) using Method 1_cAMP DP 11 points.
5 μL of each compound from the 10 mM stock compound plates is transferred to the wells of a 96-well plate respectively as below.
Fill the plate with 45 μL of DMSO except column 7 is filled with 28 μL DMSO. Pipette column 1 thoroughly, and transfer 12 μL into column 7 parallel. Perform 1:10 serial dilution from column 1 to column 6 and from column 7 to column 11 by transfer 5 μL to 45 μL DMSO to make following concentrations:
Fill a new 96-well plate with 247.5 μL of compound dilution buffer. Transfer 2.5 μL of serially diluted compounds from above plate to the new plate (1:100 dilution) as following:
Cell Growth • 1. LS174 T are always grown in MEM (ATCC Cat# 30-2003), 10% FBS (ATCC Cat# 30-2020) and additional 2 mM L-glutamine, at 37° C. and 5% CO2. • 2. Warm 0.05% Trypsin and Versine (Invitrogen Cat# 25300-054) at 37° C. water bath. • 3. […]

SMILES	IC50
COc1ccc(-c2[nH]c3ccccc3c2CC(=O)O)cc1S(=O)(=O)NC1CCCCC1 [Example 10(i), [2-(3-Cyclohexylsulfamoyl-4-methoxy-phenyl)-1H-indol-3-yl]-acetic acid]	63 nM
O=C(O)Cc1c(-c2cc(C(F)(F)F)cc(S(=O)(=O)NC3CCCCC3)c2)[nH]c2ccccc12 [Example 12, [2-(3-cyclohexylsulfamoyl-5-trifluoromethyl-phenyl)-1H-indol-3-yl]-acetic acid]	232 nM
O=C(O)Cc1c(-c2ccc(Cl)c(NS(=O)(=O)c3ccccc3)c2)[nH]c2ccccc12 [Example 13, [2-(3-benzenesulfonylamino-4-chlorophenyl)-1H-indol-3-yl]-acetic acid]	39 nM
O=C(O)Cc1c(-c2ccc(Cl)c(NC(=O)C3CCCCC3)c2)[nH]c2ccccc12 [Example 14, {2-[4-chloro-3-(cyclohexanecarbonyl-amino)-phenyl]-1H-indol-3-yl}-acetic acid]	5860 nM

Other lines, results leading:

IC50	SMILES
1220 nM	O=C(O)Cc1c(-c2ccc(S(=O)(=O)NC3CCCCC3)c(Cl)c2)[nH]c2ccccc12 [Example 10(j), [2-(3-Chloro-4-cyclohexylsulfamoyl-phenyl)-1H-indol-3-yl]-acetic acid]
2 nM	Cc1ccc(-c2[nH]c3ccccc3c2CC(=O)O)cc1S(=O)(=O)NC1CCCCC1 [Example 10(k), [2-(3-Cyclohexylsulfamoyl-4-methyl-phenyl)-1H-indol-3-yl]-acetic acid]
741 nM	O=C(O)c1c(-c2ccc(Cl)c(S(=O)(=O)NC3CCCCC3)c2)[nH]c2ccccc12 [Example 15, 2-(4-Chloro-3-cyclohexylsulfamoyl-phenyl)-1H-indole-3-carboxylic acid]
510 nM	O=C(O)c1ccc2cc(-c3ccc(Cl)c(S(=O)(=O)NC4CCCCC4)c3)[nH]c2c1 [Example 16, 2-(4-Chloro-3-cyclohexylsulfamoyl-phenyl)-1H-indole-6-carboxylic acid]
